Test results reported in US8703799B2, “Non-competitive NMDA receptor antagonists” (priority 2006, dated 2014).
Where “and” joins values, the source holds several entries; their conditions need not be identical. Identical values can stand only once.

Experiments:
mice = assay: Acute toxicity (rotorod minimal motor impairment, overt signs, death) in mice; type: in vivo; parameters: key: (+++) means some animals died at 100 mg/kg and all animals died at 300 mg/kg; (++) means that some toxicity observed at 100 mg/kg and all animals died at 300 mg/kg; (−) means no toxicity observed at 100 mg/kg and some observed at 300 mg/kg but no animals died at 300 mg/kg; settings: i.p., 100 and 300 mg/kg
Description: Acute toxicity was assessed by monitoring animals for overt signs of impaired neurological or muscular function. The rotorod test measures minimal motor impairment (MMI) by placing mice on a rod rotated a 6 rpm. A compound is considered toxic if the mice fall off the rod three times during a 1-min period. Additionally, mice were observed and noted for circular or zigzag gaits, abnormal body posture and spread of the legs, tremors, hyperactivity, lack of exploratory behavior, somnolence, stupor, catalepsy, loss of placing response and change in muscle tone.
(§1) For activity, (+) means MES test protection occurred at 100 mg/kg delivered i.p. in mice and (−) means that no activity was observed. For toxicity, (+++) means some animals died at 100 mg/kg and all animals died at 300 mg/kg; (++) means that some toxicity observed at 100 mg/kg and all animals died at 300 mg/kg; and (−) means no toxicity observed at 100 mg/kg and some observed at 300 mg/kg but no animals died at 300 mg/kg.

MES-induced seizures = assay: Maximal electroshock (MES) test for anti-convulsive activity in mice; type: in vivo; parameters: key: (+) means MES test protection occurred at 100 mg/kg delivered i.p. in mice; (−) means that no activity was observed; settings: i.p., 100 mg/kg
Description: The maximal electroshock (MES) test was used to initially screen compounds for anti-convulsive activity in mice.
In the MES test, 50 mA of […] alternating current was delivered to 19-25 g mice for 2 s by a corneal electrode which had been primed with an electrolyte solution containing an anesthetic agent (0.5% tetracaine HCl). Mice were tested at various intervals following doses of 30, 100 or 300 mg/kg of test compound given by i.p. injection in 0.01 ml/g of the aqueous carrier. Animals are considered protected from MES-induced seizures upon abolition of hindlimb tonic extensor component of the seizure (Swinyard et al. 1989; White et al. 1995a; White et al. 1995b).
as §1

pKa determination = type: physicochemical
[1] = tested on: NMDA receptors (MK-801 binding site); assay: MK-801 (dizocilpine) binding site assay; settings: rat forebrain membrane, 20 mM HEPES pH 7.5, 25° C., 90 min; FIG. 3
Description: NMDA receptors were isolated from rat forebrain membrane (Bmax=830 fmol/mg protein) and incubated with ^3H-labeled MK-801 maleate (15-30 Ci/mmol) in 20 mM HEPES (pH 7.5) buffer at 25° C. for 90 min to yield labeled receptors. MK-801 is a known non-competitive antagonist of NMDA receptor.
Selected concentrations of non-labeled bicyclo,4-F-PCP were incubated with the labeled receptors in 20 mM HEPES (pH 7.5) buffer at 25° C. for 90 min. At the conclusion of the assay, the reaction mixture was filtered immediately on glass filters by vacuum filtration and washed twice with buffer solutions. The radioactivity trapped on the filters was measured, compared with controls, and the ki and IC50 values of bicyclo,4-F-PCP were calculated.

log P determination = type: physicochemical; settings: measure of lipophilicity
[2] = Aqueous solubility of fumarate salt; type: physicochemical; settings: read-out: solubility in aqueous solution
[3] = tested on: NMDA receptors (competitive site, CGP 39653); assay: NMDA agonist binding site assay ([3H]CGP 39653); settings: rat forebrain membrane, 50 mM TRIS-acetate pH 7.4, 0-4° C., 60 min; FIG. 4
Description: NMDA receptors were isolated from rat forebrain membrane (Bmax=0.77 pmol/mg tissue) and incubated with ^3H-labeled CGP 39653 (15-30 Ci/mmol) in 50 mM TRIS-acetate (pH 7.4) buffer at 0-4° C. for 60 min to yield labeled receptors. CGP 39653 is a known competitive antagonist of NMDA receptor.
Selected concentrations of non-labeled bicyclo,4-F-PCP were incubated with the labeled receptors in 50 mM TRIS-Acetate (pH 7.4) buffer at 0-4° C. for 60 min. At the conclusion of the assay, the reaction mixture was immediately filtered using glass filters and vacuum filtration, washing twice with buffer solutions. The radioactivity trapped on the filters was measured, compared with controls, and the ki and IC50 values of bicyclo,4-F-PCP calculated.

[4] = tested on: electrically-induced convulsions; assay: Anti-convulsive ED50 in rats, oral (electrically-induced convulsions); type: in vivo; settings: delivered orally, amelioration of electrically-induced convulsions
Description: Suitable dosages for the compounds and methods disclosed herein range from about 0.05, 0.1, 0.2 or 0.5 mg/kg body weight to about 100 or 200 mg/kg body weight. In certain embodiments, dosages range from about 0.5 to 1 mg/kg body weight to about 100 mg/kg body weight. In other embodiments doses range from about 10 to about 50 mg/kg body weight. Performance of studies to determine an optimal dosage for a particular condition using a particular compound is well within the level of ordinary skill in this field. […] For example, the ED50 of bicyclo,4-F-PCP for alleviation, treatment, or prevention of Alzheimer's and Parkinson's disease would be expected to be on the order of 3 mg/kg.
Compound 4 (Bicyclo,4-F-PCP) was tested in rats using 30 mg/kg delivered orally.

SMILES	Toxicity (mice)	Activity (MES test protection) (MES-induced seizures)	pKa (pKa determination)	displacement of [3H] MK-801 maleate bound to NMDA receptors [1]	logP (log P determination)	solubility [2]	displacement of CGP 39653 from NMDA receptors [3]	ED50 ([4]; Rattus norvegicus, po, read-out: ED50 (effective dose))	ED50 (effective dose) ([4]; listed as bicyclo,4-F-PCP)
NC1(c2ccc(F)cc2)CC2CCC1C2 (racemic) [Compound 2, (±)-2-(4-fluorophenyl)-bicyclo[2.2.1]hept-2-ylamine]	++	+							
Fc1ccc(C2(N3CCCCC3)CC3CCC2C3)cc1 (racemic) [Compound 4, (±) 1-[2-(4-fluorophenyl)-bicyclo[2.2.1]hept-2-yl]-piperidine]	−	+	8.87	can displace	2.07	36600 µM and 14200 µg/mL	does not displace	28.3 mg/kg	28 mg/kg
NC1(c2ccccc2F)CCCCCC1 [cycloheptyl 2-F amine]	++	+							
Fc1ccc(C2(N3CCCCC3)CCCCCC2)cc1 [cycloheptyl 4-F piperidine]	+++	+							
